{"source": "patent US5545639A", "about": "“Method of inhibiting transformed cells” (The United States of America as represented by the …, priority 1994, dated 1996)", "assay_in_all_cases": "Dose response of growth, tumor cell line", "key": {"DMS 273": {"tested_on": "DMS 273", "assay_type": "cell-based", "settings": "Homo sapiens, DMS 273, small cell lung cancer"}, "A549/ATCC": {"tested_on": "A549/ATCC", "assay_type": "cell-based", "settings": "Homo sapiens, non-small cell lung cancer", "protocol": "(§1) Indeed, 70% of the cell lines were shown not only to experience precluded growth, but cell death, when exposed to less then 100 μM of the active ingredient."}, "COLO 205": {"tested_on": "COLO 205", "assay_type": "cell-based", "settings": "Homo sapiens, COLO 205, colon cancer", "protocol": "as §1"}, "DLD-A": {"tested_on": "DLD-A", "assay_type": "cell-based", "settings": "Homo sapiens, colon cancer", "protocol": "as §1"}, "DMS 114": {"tested_on": "DMS 114", "assay_type": "cell-based", "settings": "Homo sapiens, DMS 114, small cell lung cancer", "protocol": "as §1"}, "EKVX": {"tested_on": "EKVX", "assay_type": "cell-based", "settings": "Homo sapiens, non-small cell lung cancer", "protocol": "as §1"}, "HCT-15": {"tested_on": "HCT-15", "assay_type": "cell-based", "settings": "Homo sapiens, HCT-15, colon cancer", "protocol": "as §1"}, "HL-60 (TB)": {"tested_on": "HL-60 (TB)", "assay_type": "cell-based", "settings": "Homo sapiens, leukemia", "protocol": "as §1"}, "HOP-18": {"tested_on": "HOP-18", "assay_type": "cell-based", "settings": "Homo sapiens, HOP-18, non-small cell lung cancer", "protocol": "as §1"}, "IGROVI": {"tested_on": "IGROVI", "assay_type": "cell-based", "settings": "Homo sapiens, ovarian cancer", "protocol": "as §1"}, "K-562": {"tested_on": "K-562", "assay_type": "cell-based", "settings": "Homo sapiens, K562, K-562, leukemia", "protocol": "as §1"}, "KM20L2": {"tested_on": "KM20L2", "assay_type": "cell-based", "settings": "Homo sapiens, KM-20L2, KM20L2, colon cancer", "protocol": "as §1"}, "M19-MEL": {"tested_on": "M19-MEL", "assay_type": "cell-based", "settings": "Homo sapiens, melanoma", "protocol": "as §1"}, "MCF7/ADR-RES": {"tested_on": "MCF7/ADR-RES", "assay_type": "cell-based", "settings": "Homo sapiens, miscellaneous", "protocol": "as §1"}, "MCF7": {"tested_on": "MCF7", "assay_type": "cell-based", "settings": "Homo sapiens, MCF7, miscellaneous", "protocol": "as §1"}, "MOLT-4": {"tested_on": "MOLT-4", "assay_type": "cell-based", "settings": "Homo sapiens, MOLT-4, leukemia", "protocol": "as §1"}, "NCI-H522": {"tested_on": "NCI-H522", "assay_type": "cell-based", "settings": "Homo sapiens, NCI-H522, non-small cell lung cancer", "protocol": "as §1"}, "OVCAR-3": {"tested_on": "OVCAR-3", "assay_type": "cell-based", "settings": "Homo sapiens, OVCAR-3, ovarian cancer", "protocol": "as §1"}, "OVCAR-4": {"tested_on": "OVCAR-4", "assay_type": "cell-based", "settings": "Homo sapiens, OVCAR-4, ovarian cancer", "protocol": "as §1"}, "SF-539": {"tested_on": "SF-539", "assay_type": "cell-based", "settings": "Homo sapiens, SF-539, CNS cancer", "protocol": "as §1"}, "SK-MEL-2": {"tested_on": "SK-MEL-2", "assay_type": "cell-based", "settings": "Homo sapiens, SK-MEL-2, melanoma", "protocol": "as §1"}, "SN12C": {"tested_on": "SN12C", "assay_type": "cell-based", "settings": "Homo sapiens, renal cancer", "protocol": "as §1"}, "SNB-78": {"tested_on": "SNB-78", "assay_type": "cell-based", "settings": "Homo sapiens, SNB-78, CNS cancer", "protocol": "as §1"}, "UACC-257": {"tested_on": "UACC-257", "assay_type": "cell-based", "settings": "Homo sapiens, UACC-257, melanoma", "protocol": "as §1"}, "P388": {"tested_on": "P388", "assay_type": "cell-based, murine", "settings": "P388, miscellaneous", "protocol": "as §1"}, "[1]": {"settings": "read-out: 50% Growth (Relative to Control)"}, "[2]": {"settings": "read-out: No Growth (Relative to Control)"}}}
{"smiles": "ClCc1ccc2ccc3ccc(CCl)nc3c2n1", "note": "[2,9-bis(chloromethyl)-1,10-phenanthroline]", "values": [{"measurement": "IC50", "setting": "DMS 273; [1]", "result": 2.84, "unit": "µM"}, {"measurement": "IC100", "setting": "DMS 273; [2]", "result": "> 100", "unit": "µM"}, {"measurement": "IC50", "setting": "A549/ATCC; [1]", "result": 5.14, "unit": "µM"}, {"measurement": "CC50", "setting": "A549/ATCC; read-out: 50% Loss (50% kill)", "result": "> 100", "unit": "µM"}, {"measurement": "IC100", "setting": "A549/ATCC; [2]", "result": "> 100", "unit": "µM"}, {"measurement": "IC50", "setting": "COLO 205; [1]", "result": 1.56, "unit": "µM"}, {"measurement": "CC50", "setting": "COLO 205; read-out: 50% Loss (50% kill)", "result": 5.54, "unit": "µM"}, {"measurement": "IC100", "setting": "COLO 205; [2]", "result": 2.94, "unit": "µM"}, {"measurement": "IC50", "setting": "DLD-A; [1]", "result": 1.48, "unit": "µM"}, {"measurement": "CC50", "setting": "DLD-A; read-out: 50% Loss (50% kill)", "result": 5.72, "unit": "µM"}, {"measurement": "IC100", "setting": "DLD-A; [2]", "result": 2.91, "unit": "µM"}, {"measurement": "IC50", "setting": "DMS 114; [1]", "result": 1.62, "unit": "µM"}, {"measurement": "IC100", "setting": "DMS 114; [2]", "result": 3.53, "unit": "µM"}, {"measurement": "IC50", "setting": "EKVX; [1]", "result": 28.1, "unit": "µM"}, {"measurement": "CC50", "setting": "EKVX; read-out: 50% Loss (50% kill)", "result": "> 100", "unit": "µM"}, {"measurement": "IC100", "setting": "EKVX; [2]", "result": "> 100", "unit": "µM"}, {"measurement": "IC50", "setting": "HCT-15; [1]", "result": 1.95, "unit": "µM"}, {"measurement": "CC50", "setting": "HCT-15; read-out: 50% Loss (50% kill)", "result": "> 100", "unit": "µM"}, {"measurement": "IC100", "setting": "HCT-15; [2]", "result": 6.47, "unit": "µM"}, {"measurement": "IC50", "setting": "HL-60 (TB); [1]", "result": 1.8, "unit": "µM"}, {"measurement": "CC50", "setting": "HL-60 (TB); read-out: 50% Loss (50% kill)", "result": 23, "unit": "µM"}, {"measurement": "IC100", "setting": "HL-60 (TB); [2]", "result": 4.43, "unit": "µM"}, {"measurement": "IC50", "setting": "HOP-18; [1]", "result": 3.02, "unit": "µM"}, {"measurement": "CC50", "setting": "HOP-18; read-out: 50% Loss (50% kill)", "result": 31.2, "unit": "µM"}, {"measurement": "IC100", "setting": "HOP-18; [2]", "result": 9.71, "unit": "µM"}, {"measurement": "IC50", "setting": "IGROVI; [1]", "result": 1.51, "unit": "µM"}, {"measurement": "CC50", "setting": "IGROVI; read-out: 50% Loss (50% kill)", "result": 6.25, "unit": "µM"}, {"measurement": "IC100", "setting": "IGROVI; [2]", "result": 3.07, "unit": "µM"}, {"measurement": "IC50", "setting": "K-562; [1]", "result": 3.19, "unit": "µM"}, {"measurement": "CC50", "setting": "K-562; read-out: 50% Loss (50% kill)", "result": "> 100", "unit": "µM"}, {"measurement": "IC100", "setting": "K-562; [2]", "result": "> 100", "unit": "µM"}, {"measurement": "IC50", "setting": "KM20L2; [1]", "result": 2.72, "unit": "µM"}, {"measurement": "CC50", "setting": "KM20L2; read-out: 50% Loss (50% kill)", "result": 28.3, "unit": "µM"}, {"measurement": "IC100", "setting": "KM20L2; [2]", "result": 7.21, "unit": "µM"}, {"measurement": "IC50", "setting": "M19-MEL; [1]", "result": 1.31, "unit": "µM"}, {"measurement": "CC50", "setting": "M19-MEL; read-out: 50% Loss (50% kill)", "result": 5.28, "unit": "µM"}, {"measurement": "IC100", "setting": "M19-MEL; [2]", "result": 2.63, "unit": "µM"}, {"measurement": "IC50", "setting": "MCF7/ADR-RES; [1]", "result": 1.93, "unit": "µM"}, {"measurement": "CC50", "setting": "MCF7/ADR-RES; read-out: 50% Loss (50% kill)", "result": "> 100", "unit": "µM"}, {"measurement": "IC100", "setting": "MCF7/ADR-RES; [2]", "result": 4.48, "unit": "µM"}, {"measurement": "IC50", "setting": "MCF7; [1]", "result": 0.564, "unit": "µM"}, {"measurement": "CC50", "setting": "MCF7; read-out: 50% Loss (50% kill)", "result": 8.88, "unit": "µM"}, {"measurement": "IC100", "setting": "MCF7; [2]", "result": 2.48, "unit": "µM"}, {"measurement": "IC50", "setting": "MOLT-4; [1]", "result": 1.73, "unit": "µM"}, {"measurement": "CC50", "setting": "MOLT-4; read-out: 50% Loss (50% kill)", "result": 9.34, "unit": "µM"}, {"measurement": "IC100", "setting": "MOLT-4; [2]", "result": 4.02, "unit": "µM"}, {"measurement": "IC50", "setting": "NCI-H522; [1]", "result": 1.76, "unit": "µM"}, {"measurement": "CC50", "setting": "NCI-H522; read-out: 50% Loss (50% kill)", "result": 6.71, "unit": "µM"}, {"measurement": "IC100", "setting": "NCI-H522; [2]", "result": 3.44, "unit": "µM"}, {"measurement": "IC50", "setting": "OVCAR-3; [1]", "result": 1.75, "unit": "µM"}, {"measurement": "CC50", "setting": "OVCAR-3; read-out: 50% Loss (50% kill)", "result": 18.4, "unit": "µM"}, {"measurement": "IC100", "setting": "OVCAR-3; [2]", "result": 4.93, "unit": "µM"}, {"measurement": "IC50", "setting": "OVCAR-4; [1]", "result": 3.15, "unit": "µM"}, {"measurement": "CC50", "setting": "OVCAR-4; read-out: 50% Loss (50% kill)", "result": 34.9, "unit": "µM"}, {"measurement": "IC100", "setting": "OVCAR-4; [2]", "result": 9.37, "unit": "µM"}, {"measurement": "IC50", "setting": "SF-539; [1]", "result": 2.99, "unit": "µM"}, {"measurement": "CC50", "setting": "SF-539; read-out: 50% Loss (50% kill)", "result": 41.8, "unit": "µM"}, {"measurement": "IC100", "setting": "SF-539; [2]", "result": 11.2, "unit": "µM"}, {"measurement": "IC50", "setting": "SK-MEL-2; [1]", "result": 1.77, "unit": "µM"}, {"measurement": "CC50", "setting": "SK-MEL-2; read-out: 50% Loss (50% kill)", "result": 16.6, "unit": "µM"}, {"measurement": "IC100", "setting": "SK-MEL-2; [2]", "result": 4.81, "unit": "µM"}, {"measurement": "IC50", "setting": "SN12C; [1]", "result": 3.35, "unit": "µM"}, {"measurement": "CC50", "setting": "SN12C; read-out: 50% Loss (50% kill)", "result": "> 100", "unit": "µM"}, {"measurement": "IC100", "setting": "SN12C; [2]", "result": "> 100", "unit": "µM"}, {"measurement": "IC50", "setting": "SNB-78; [1]", "result": 2.3, "unit": "µM"}, {"measurement": "CC50", "setting": "SNB-78; read-out: 50% Loss (50% kill)", "result": "> 100", "unit": "µM"}, {"measurement": "IC100", "setting": "SNB-78; [2]", "result": 6.4, "unit": "µM"}, {"measurement": "IC50", "setting": "UACC-257; [1]", "result": 0.78, "unit": "µM"}, {"measurement": "CC50", "setting": "UACC-257; read-out: 50% Loss (50% kill)", "result": 5.58, "unit": "µM"}, {"measurement": "IC100", "setting": "UACC-257; [2]", "result": 2.03, "unit": "µM"}, {"measurement": "IC50", "setting": "P388; Mus musculus, read-out: 50% Growth (Relative to Control)", "result": 0.735, "unit": "µM"}, {"measurement": "IC100", "setting": "P388; Mus musculus, read-out: No Growth (Relative to Control)", "result": 3.01, "unit": "µM"}, {"measurement": "CC50", "setting": "P388; read-out: 50% Loss (50% kill)", "result": 25.1, "unit": "µM"}]}
